Source: PubChem BioAssay (NCI)
Where “and” joins values, the source holds several entries; their conditions need not be identical. Identical values can stand only once.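 Growth conditions: 96-well plates. Treatment: test compound, 48 hours, 5 concentrations. Analysis: linear interpolation between bracketing concentrations; unreached endpoints set to highest concentration. Abbreviation: GI50, concentration required for 50% inhibition of growth. TGI: concentration producing complete growth inhibition.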 Residues, ends and D or L forms follow the SMILES beside them. *: point of attachment. Cbz = O=C(OCc1ccccc1)*

Assays:
Test in all cases: inhibition of tumour cell growth, NCI panel, 48 h
OVCAR-5 ovarian = system: OVCAR-5 ovarian
NCI-H23 lung = system: NCI-H23 lung
MDA-MB-435 = system: MDA-MB-435
CAKI-1 renal = system: CAKI-1 renal
A498 renal = system: A498 renal
TK-10 renal = system: TK-10 renal
HT29 colon = system: HT29 colon
RXF 393 renal = system: RXF 393 renal
SNB-75 CNS = system: SNB-75 CNS
K-562 leukemia = system: K-562 leukemia

| Compound | GI50 (OVCAR-5 ovarian) | TGI (OVCAR-5 ovarian) | TGI (NCI-H23 lung) | TGI (MDA-MB-435) | TGI (CAKI-1 renal) | TGI (A498 renal) | GI50 (TK-10 renal) | TGI (TK-10 renal) | TGI (HT29 colon) | TGI (RXF 393 renal) | TGI (SNB-75 CNS) | TGI (K-562 leukemia) | GI50 (HT29 colon) | GI50 (NCI-H23 lung) | GI50 (SNB-75 CNS) | GI50 (MDA-MB-435) | GI50 (CAKI-1 renal) | GI50 (A498 renal) | GI50 (K-562 leukemia) | GI50 (RXF 393 renal) |
| --- | --- | --- | --- | --- | --- | --- | --- | --- | --- | --- | --- | --- | --- | --- | --- | --- | --- | --- | --- | --- |
| CN1CCN(CCCN2c3ccccc3Sc3ccc(Cl)cc32)CC1 | 7.09 µM and 43.1 µM | 14 µM and 62.9 µM | 12 µM | 6.02 µM and 58.6 µM | 9.02 µM and 74.2 µM | 5.82 µM and 31.6 µM | 7.18 µM and 51.8 µM | 14.1 µM and 89 µM | – | – | – | – | – | – | – | – | – | – | – | – |
| COc1cccc(C2SCc3nc4ccccc4n32)c1 (centres undefined) | – | > 100 µM | > 100 µM | – | > 100 µM | > 100 µM | – | 55.1 µM | > 100 µM | > 100 µM | > 100 µM | > 100 µM | – | – | – | – | – | – | – | – |
| COc1ccc2c(c1)C(c1cc(OC)c3c(c1)OCO3)C1=C(COC1=O)N2 (centres undefined) | 0.629 µM | > 100 µM | > 64.9 µM | 0.287 µM | > 100 µM | 1.48 µM | – | > 77.2 µM | – | – | 37.6 µM | > 100 µM | 0.325 µM | 0.346 µM | 0.381 µM | 0.049 µM | 0.769 µM | 0.105 µM | 0.264 µM | – |
| CN(C)c1ccccc1[CH2][Ga]([Cl])[CH2]c1ccccc1N(C)C | 1.35 µM | 2.73 µM | 2.06 µM | 3.12 µM | 3.94 µM | – | 2.16 µM | 4.7 µM | 2.82 µM | – | 2.74 µM | 4.46 µM | 0.583 µM | 0.595 µM | 1.41 µM | 1.61 µM | 1.58 µM | – | 1.46 µM | – |
| O=C1c2cc(F)ccc2-c2c1c1ccc([N+](=O)[O-])cc1c(=O)n2CCCBr | 65.5 µM | > 100 µM | 85.4 µM | > 100 µM | > 100 µM | – | 64.8 µM | > 100 µM | > 100 µM | – | 50.5 µM | > 100 µM | 19.6 µM | 18.4 µM | 2.97 µM | 37.5 µM | 27.3 µM | – | 22.4 µM | – |
| C=C1CC2(CCS(=O)(=O)c3ccccc32)OC1=O (centres undefined) | – | 27.3 µM | 27.7 µM | – | 3.3 µM | 31.5 µM | – | 26.7 µM | 31.7 µM | – | – | 34.4 µM | – | – | – | – | – | – | – | – |
| Cc1c2c(nn1-c1ccc(S(=O)(=O)NC(=S)NC(=O)c3ccccc3)cc1)-c1ccccc1CC2 | > 100 µM | > 100 µM | > 100 µM | 91.4 µM | 51.9 µM | – | 28.9 µM | 78.5 µM | > 100 µM | – | > 100 µM | > 100 µM | > 100 µM | 53.9 µM | 59.5 µM | 27.9 µM | 16.1 µM | – | 6.09 µM | – |
| COc1cc(CCC(=O)NC[C@@H](O)c2ccccc2)ccc1O | > 100 µM | > 100 µM | > 100 µM | > 100 µM | > 100 µM | – | > 100 µM | > 100 µM | > 100 µM | > 100 µM | > 100 µM | > 100 µM | > 100 µM | > 100 µM | > 100 µM | > 100 µM | > 100 µM | – | 56.8 µM | > 100 µM |
| NCCSC(c1ccccc1)(c1ccccc1)c1ccccc1 | 1.92 µM | 6.95 µM | 13.6 µM | 0.55 µM | 16.1 µM | 8.39 µM | – | – | 4.23 µM | – | 5.31 µM | 1.61 µM | 1.95 µM | 3.38 µM | 1.73 µM | 0.242 µM | 3.51 µM | 1.03 µM | 0.322 µM | – |
| Cn1c(-c2c(N)n(Cc3ccc(F)cc3)c3nc(C#N)c(C#N)nc23)nc2ccccc21 | 8.55 µM | > 50 µM | 4.08 µM | 13.3 µM | 4.43 µM | – | 1.09 µM | 3.77 µM | – | 4.86 µM | – | > 50 µM | – | 1.3 µM | – | 1.83 µM | 1.36 µM | – | 5.19 µM | 1.7 µM |
| CN1C(=O)C2(c3ccccc31)C1CC3C(CO1)C1C2C3(CO)CN1C#N (centres undefined) | – | > 100 µM | > 100 µM | > 100 µM | > 100 µM | – | – | > 100 µM | > 100 µM | > 100 µM | > 100 µM | > 100 µM | – | – | – | – | – | – | – | – |
| COc1ccc(Cn2cc3c(c2-c2cc(OC)c(OC)c(OC)c2)CCc2c(CO)noc2-3)cc1 | 0.543 µM | > 82.3 µM | 42.1 µM | 0.245 µM | 20.1 µM | 3.03 µM | 17.7 µM | 55.2 µM | 13 µM | – | 24.4 µM | > 100 µM | 0.323 µM | 0.612 µM | 0.177 µM | 0.0605 µM | 0.342 µM | 0.187 µM | 0.313 µM | – |
| COc1ccc2nc3cccc([N+](=O)[O-])c3c(NC(C)CN(C)C)c2c1 (centres undefined) | 1.73 µM | 5.21 µM | 5.33 µM | – | 7.19 µM | 4.59 µM | 2.2 µM | 9.59 µM | 6.8 µM | – | 5.55 µM | 4.03 µM | 1.63 µM | 2.1 µM | 2.25 µM | – | 2.52 µM | 2.09 µM | 1.56 µM | – |
| N#CCc1nnc(N)o1 | – | – | > 100 µM | – | > 100 µM | – | – | > 100 µM | – | – | > 100 µM | > 100 µM | – | – | – | – | – | – | – | – |
| O=C(O)CN(c1ccc(F)cc1)S(=O)(=O)c1ccccc1 | – | > 100 µM | > 100 µM | – | > 100 µM | > 100 µM | – | > 100 µM | > 100 µM | > 100 µM | > 100 µM | > 100 µM | – | – | – | – | – | – | – | – |
| COC(=O)C1[C@H](c2ccc3c(c2)OCO3)OC(=O)[C@]1(C(=O)OC)C(=O)c1ccc(OC)c(OC)c1 (some centres undefined) | – | > 100 µM | > 100 µM | – | > 100 µM | > 100 µM | – | > 100 µM | > 100 µM | – | > 100 µM | > 100 µM | – | – | – | – | – | – | – | – |
| O=C(O)Cc1ccc(N=Nc2c(O)c(C(=O)O)cc3ccccc23)cc1 | – | > 100 µM | – | > 100 µM | > 100 µM | – | – | > 100 µM | > 100 µM | > 100 µM | > 100 µM | > 100 µM | – | – | – | – | – | – | – | – |
| CC[PH+](CC)CC.CC[PH+](CC)CC.[Au] | 25.8 µM | 41.5 µM | 28.6 µM | – | 13.5 µM | – | 19.9 µM | 35.7 µM | 32.4 µM | – | 29 µM | 41.1 µM | 16.3 µM | 13.3 µM | 15 µM | – | 6.8 µM | – | 5.98 µM | – |
| CCOC(=O)CN(c1ccccc1)c1nc(=[N+](C)C)ss1 | – | – | – | – | 87.8 µM | > 100 µM | – | > 100 µM | – | > 100 µM | > 100 µM | > 100 µM | – | – | – | – | – | – | – | – |
| CC(=O)OCC1OC(n2ncc(=O)[nH]c2=O)C(OC(C)=O)C1OC(C)=O (centres undefined) | – | > 100 µM | > 100 µM | > 100 µM | > 100 µM | – | – | > 100 µM | > 100 µM | > 100 µM | > 100 µM | > 100 µM | – | – | – | – | – | – | – | – |
| O=c1cccc2n1CC1CNC[C@H]2C1 | – | > 100 µM | > 100 µM | > 100 µM | > 100 µM | – | – | > 100 µM | > 100 µM | > 100 µM | > 100 µM | > 100 µM | – | – | – | – | – | – | – | – |
| Cc1ccc(C(=O)NCCN(C)C)c2nc3ccccc3cc12 | – | 8.71 µM | – | – | 25.6 µM | – | – | 12.2 µM | 11.3 µM | 3.29 µM | 3.54 µM | > 100 µM | – | – | – | – | – | – | – | – |
| CN(C)CCNC(=O)c1ccc2oc3cc4ccccc4c(=O)n3c2c1 | – | – | 57.8 µM | > 100 µM | 55.2 µM | – | 21.6 µM | 72.3 µM | > 100 µM | 70.4 µM | 61.2 µM | > 100 µM | 28 µM | 17.4 µM | 22.9 µM | 42.1 µM | 17.1 µM | – | 64.1 µM | 23.8 µM |
| Cc1ccsc1-c1ccc2c(c1)COC2(CCCN(C)C)c1ccc(F)cc1 (centres undefined) | 3.81 µM | 15 µM | 18.1 µM | 3.24 µM | 6.05 µM | – | 3.04 µM | 12.8 µM | 8.45 µM | 9.44 µM | 6.82 µM | 8.05 µM | 2.29 µM | 5.39 µM | 1.72 µM | 1.68 µM | 2.19 µM | – | 2.46 µM | 2.76 µM |
| O=C1CC(N2C(=O)/C(=C/C(Cl)=C\c3ccc([N+](=O)[O-])cc3)SC2=S)C(=O)N1c1ccc(O)cc1 (centres undefined) | 1.91 µM | 3.69 µM | 3.52 µM | 4.34 µM | 2.42 µM | – | 1.92 µM | 3.79 µM | 8.78 µM | 3.22 µM | – | 9.55 µM | 0.847 µM | 1.56 µM | – | 2.01 µM | 1.15 µM | – | 0.603 µM | 1.53 µM |
| Cc1ccc(C2=Nc3ccccc3S(=O)C(c3ccc4c(c3)OCO4)C2)cc1 (centres undefined) | – | – | 48.9 µM | – | > 100 µM | 51.7 µM | – | > 100 µM | 31.5 µM | 32.1 µM | > 100 µM | 98.8 µM | – | – | – | – | – | – | – | – |
| O=C1C(=O)N(c2ccc(Cl)cc2)C(=O)C(=Nc2cccc3c(=O)[nH][nH]c(=O)c23)C1c1nc2ccccc2o1 (centres undefined) | – | > 100 µM | > 100 µM | – | > 100 µM | > 100 µM | – | > 100 µM | > 100 µM | – | > 100 µM | > 100 µM | – | – | – | – | – | – | – | – |
| CC(C)C[C@@H](C=O)NC(=O)[C@H](CC(C)C)NC(=O)[C@H](CC(C)C)NC(=O)OCc1ccccc1 (Cbz-Leu-Leu-Leu-aldehyde) | 0.643 µM | 4.74 µM | 2.99 µM | – | – | 2.22 µM | 0.27 µM | 0.893 µM | 0.647 µM | 0.371 µM | – | > 100 µM | 0.268 µM | 0.422 µM | – | – | – | 0.424 µM | 0.368 µM | 0.199 µM |
